This is an account of results in PubChem BioAssay AID220 (DTP/NCI, 2004).

The experiment has as its system CD8F1 mice, subcutaneous mammary adenocarcinoma, T/C%. As to the kind of experiment: NCI In Vivo Anticancer Drug Screen. Data for tumor model Mammary Adenocarcinoma CD8F1 (subcutaneous) in CD8F1. To be noted: higher = larger tumour. A digest of the protocol:
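Mice carrying transplanted tumors received test compound, and survival or tumor size was recorded. Each value is the treated-group measurement divided by the corresponding measurement in vehicle-dosed controls.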

[1] abbreviates: endpoint: median tumor weight (est.), dose: 12.5 mg/kg/injection, schedule: Q07DX005 (ip), vehicle: saline.
[2] abbreviates: endpoint: median tumor weight (est.), dose: 25.0 mg/kg/injection, schedule: Q07DX005 (ip), vehicle: saline.
[3] abbreviates: endpoint: median tumor weight (est.), dose: 50.0 mg/kg/injection, schedule: Q07DX005 (ip), vehicle: saline.
Where [4] appears, read: endpoint: median tumor weight (est.), dose: 100.0 mg/kg/injection, schedule: Q07DX005 (ip), vehicle: saline.
Where [5] appears, read: endpoint: median tumor weight (est.), dose: 200.0 mg/kg/injection, schedule: Q07DX005 (ip), vehicle: saline.
[6] abbreviates: endpoint: median tumor weight (est.), dose: 12.5 mg/kg/injection, schedule: Q07DX005 (ip), vehicle: saline with Tween-80.
[7] abbreviates: endpoint: median tumor weight (est.), dose: 12.5 mg/kg/injection, schedule: Q07DX005 (ip), vehicle: suspension in saline.
Setting [8] is: endpoint: median tumor weight (est.), dose: 25.0 mg/kg/injection, schedule: Q07DX005 (ip), vehicle: saline with Tween-80.
[9] abbreviates: endpoint: median tumor weight (est.), dose: 50.0 mg/kg/injection, schedule: Q07DX005 (ip), vehicle: suspension in saline.
Where [10] appears, read: endpoint: median tumor weight (est.), dose: 25.0 mg/kg/injection, schedule: Q07DX005 (ip), vehicle: suspension in saline.
Setting [11] is: endpoint: median tumor weight (est.), dose: 100.0 mg/kg/injection, schedule: Q07DX005 (ip), vehicle: suspension in saline.

“And” between values parts separate entries of the source, which are not always exact repeats. Equal values may be shown once. Results filed as inconclusive are left out.

Turning to `COC1CC(C)C(OC)c2cc(O)cc(c2O)NC(=O)/C(C)=C/C=C\C(C)C(OC(N)=O)/C(C)=C\C(C)C1OC` (stereo unspecified), the T/C was 87 % of control (endpoint: median tumor weight change, dose: 6.25 mg/kg/injection, schedule: Q01DX001 (ip), vehicle: saline + Tween-80 + alcohol); 88 % of control (endpoint: median tumor weight change, dose: 12.5 mg/kg/injection, schedule: Q01DX001 (ip), vehicle: saline + Tween-80 + alcohol); 87 % of control (endpoint: median tumor weight change, dose: 25.0 mg/kg/injection, schedule: Q01DX001 (ip), vehicle: saline + Tween-80 + alcohol).
With `CCOC(=O)CNC(=O)CCCCSc1ncnc2nc[nH]c12`, the T/C is, setting by setting: (endpoint: mean tumor weight, dose: 20.0 mg/kg/injection, schedule: Q07DX005 (ip), vehicle: saline) 121 % of control; (endpoint: mean tumor weight, dose: 40.0 mg/kg/injection, schedule: Q07DX005 (ip), vehicle: saline) 84 % of control; (endpoint: mean tumor weight, dose: 80.0 mg/kg/injection, schedule: Q07DX005 (ip), vehicle: saline) 48 % of control; (endpoint: mean tumor weight, dose: 160.0 mg/kg/injection, schedule: Q07DX005 (ip), vehicle: saline) 39 % of control; (endpoint: mean tumor weight, dose: 320.0 mg/kg/injection, schedule: Q07DX005 (ip), vehicle: saline) 67 % of control; (endpoint: mean tumor weight, dose: 640.0 mg/kg/injection, schedule: Q07DX005 (ip), vehicle: saline) 45 % of control. Further, the T/C was 78 % of control (endpoint: median tumor weight (est.), dose: 20.0 mg/kg/injection, schedule: Q07DX004 (ip), vehicle: saline); 63 % of control (endpoint: median tumor weight (est.), dose: 40.0 mg/kg/injection, schedule: Q07DX004 (ip), vehicle: saline); 40 % of control (endpoint: median tumor weight (est.), dose: 80.0 mg/kg/injection, schedule: Q07DX004 (ip), vehicle: saline); 97 % of control (endpoint: median tumor weight (est.), dose: 160.0 mg/kg/injection, schedule: Q07DX004 (ip), vehicle: saline); 109 % of control (endpoint: median tumor weight (est.), dose: 320.0 mg/kg/injection, schedule: Q07DX004 (ip), vehicle: saline).
Take `O=[Te]=O`: the T/C reads like this: (endpoint: median tumor weight change, dose: 6.25 mg/kg/injection, schedule: Q01DX001 (ip), vehicle: suspension in saline) 73 % of control; (endpoint: median tumor weight change, dose: 12.5 mg/kg/injection, schedule: Q01DX001 (ip), vehicle: suspension in saline) 83 % of control; (endpoint: median tumor weight change, dose: 25.0 mg/kg/injection, schedule: Q01DX001 (ip), vehicle: suspension in saline) 61 % of control; (endpoint: median tumor weight change, dose: 50.0 mg/kg/injection, schedule: Q01DX001 (ip), vehicle: suspension in saline) 94 % of control; (endpoint: median tumor weight change, dose: 100.0 mg/kg/injection, schedule: Q01DX001 (ip), vehicle: suspension in saline) 106 % of control.
`C=CC12COC(=O)C(=C)C1C1OC(=O)C(=C)C1C(O)C2` (stereo unspecified): the T/C (endpoint: mean tumor weight, dose: 5.0 mg/kg/injection, schedule: Q07DX006 (ip), vehicle: saline) is 78 % of control.
With `C[CH2][Ge]([CH2]C)[CH2]C.C[CH2][Ge]([CH2]C)[CH2]C.C[CH2][Ge]([CH2]C)[O][Ge]([CH2]C)[CH2]C`, the T/C by setting is: (endpoint: median tumor weight change, dose: 125.0 mg/kg/injection, schedule: Q01DX001 (ip), vehicle: saline with Tween-80) 81 % of control; (endpoint: median tumor weight change, dose: 500.0 mg/kg/injection, schedule: Q01DX001 (ip), vehicle: saline with Tween-80) 114 % of control.
For `CC1(C)OC(=O)N(CO)C1=O`, the T/C is, setting by setting: under setting [1], 52 % of control; under setting [2], 73 % of control; under setting [3], 9 % of control; under setting [4], 110 % of control; under setting [5], 104 % of control.
`OCCN1CCN(CC/C=C2/c3ccccc3Sc3ccc(C(F)(F)F)cc32)CC1`: the T/C by setting is: (endpoint: median tumor weight (est.), dose: 3.12 mg/kg/injection, schedule: Q07DX005 (ip), vehicle: saline) 70 % of control; (endpoint: median tumor weight (est.), dose: 6.25 mg/kg/injection, schedule: Q07DX005 (ip), vehicle: saline) 107 % of control; under setting [1], 120 % of control; under setting [2], 101 % of control; under setting [3], 81 % of control.
As for `O=C1OC(C(O)CO)C(O)=C1O` (stereo unspecified), the T/C was 70 % of control under setting [4]; 28 % of control under setting [5]; 110 % of control (endpoint: median tumor weight (est.), dose: 400.0 mg/kg/injection, schedule: Q07DX005 (ip), vehicle: saline); 61 % of control (endpoint: median tumor weight (est.), dose: 800.0 mg/kg/injection, schedule: Q07DX005 (ip), vehicle: saline).
For the compound `O=c1n(CC2CO2)c(=O)n(CC2CO2)c(=O)n1CC1CO1` (stereo unspecified), the T/C (endpoint: median tumor weight (est.), dose: 12.5 mg/kg/injection, schedule: Q07DX004 (ip), vehicle: saline with Tween-80) was 64 % of control; the T/C under setting [6] was 17 % of control; the T/C under setting [7] was 69 % of control and 55 % of control; the T/C (endpoint: median tumor weight (est.), dose: 25.0 mg/kg/injection, schedule: Q07DX004 (ip), vehicle: saline with Tween-80) was 79 % of control; the T/C under setting [8] is 4 % of control; the T/C (endpoint: median tumor weight (est.), dose: 50.0 mg/kg/injection, schedule: Q07DX004 (ip), vehicle: saline with Tween-80) was 42 % of control. For the same compound, the T/C under setting [9] was 12 % of control and 35 % of control.
`CNc1nc2c(N)ncnc2n1C1OC(CO)C(O)C1O` (stereo unspecified): the T/C reads like this: under setting [10], 89 % of control and 91 % of control; under setting [9], 76 % of control and 96 % of control; under setting [11], 29 % of control.
Take `COC1=C(C)C(=O)C2=C(C1=O)C1C3CC4=C(C(=O)C(OC)=C(C)C4=O)C(CNC(=O)C(C)=O)N3C(C#N)C(C2)N1C` (stereo unspecified): the T/C runs as follows: (endpoint: median tumor weight change, dose: 0.62 mg/kg/injection, schedule: Q01DX001 (ip), vehicle: Klucel (hydroxypropylcellulose) (HPC)) 114 % of control; (endpoint: median tumor weight change, dose: 0.63 mg/kg/injection, schedule: Q01DX001 (ip), vehicle: Klucel (hydroxypropylcellulose) (HPC)) 119 % of control; (endpoint: median tumor weight change, dose: 1.2 mg/kg/injection, schedule: Q01DX001 (ip), vehicle: Klucel (hydroxypropylcellulose) (HPC)) 109 % of control; (endpoint: median tumor weight change, dose: 1.25 mg/kg/injection, schedule: Q01DX001 (ip), vehicle: Klucel (hydroxypropylcellulose) (HPC)) 96 % of control; (endpoint: median tumor weight change, dose: 2.5 mg/kg/injection, schedule: Q01DX001 (ip), vehicle: Klucel (hydroxypropylcellulose) (HPC)) 98 % of control and 114 % of control.
`COC1OC(CO)C(O)C(NC(=O)N(C)N=O)C1O` (stereo unspecified): for the setting “endpoint: median tumor weight change, dose: 125.0 mg/kg/injection, schedule: Q01DX001 (ip), vehicle: saline”, the T/C is 86 % of control.
On to `O=C1NC(c2ccccc2)N=C2Oc3ccccc3C=C12` (stereo unspecified), for which the T/C is 116 % of control (endpoint: median tumor weight (est.), dose: 3.12 mg/kg/injection, schedule: Q07DX005 (ip), vehicle: saline with Tween-80); 50 % of control (endpoint: median tumor weight (est.), dose: 6.25 mg/kg/injection, schedule: Q07DX005 (ip), vehicle: saline with Tween-80); 109 % of control under setting [6]; 78 % of control and 101 % of control under setting [8]; 95 % of control and 115 % of control (endpoint: median tumor weight (est.), dose: 50.0 mg/kg/injection, schedule: Q07DX005 (ip), vehicle: saline with Tween-80); 63 % of control and 85 % of control (endpoint: median tumor weight (est.), dose: 100.0 mg/kg/injection, schedule: Q07DX005 (ip), vehicle: saline with Tween-80).
Take `O=C1C2(Cl)C3(Cl)C4(Cl)C(Cl)(Cl)C5(Cl)[C@]3(Cl)C1(Cl)[C@]5(Cl)C24Cl` (stereo partly specified): the T/C (endpoint: median tumor weight (est.), dose: 12.5 mg/kg/injection, schedule: Q07DX005 (ip), vehicle: Klucel (hydroxypropylcellulose) (HPC)) is 71 % of control; the T/C (endpoint: median tumor weight (est.), dose: 25.0 mg/kg/injection, schedule: Q07DX005 (ip), vehicle: Klucel (hydroxypropylcellulose) (HPC)) was 91 % of control; the T/C (endpoint: median tumor weight (est.), dose: 50.0 mg/kg/injection, schedule: Q07DX005 (ip), vehicle: Klucel (hydroxypropylcellulose) (HPC)) was 67 % of control.
As for `[Cl][Sn]([c]1ccccc1)[c]1ccccc1`, the T/C is, setting by setting: (endpoint: median tumor weight change, dose: 1.56 mg/kg/injection, schedule: Q01DX001 (ip), vehicle: saline) 81 % of control; (endpoint: median tumor weight change, dose: 3.12 mg/kg/injection, schedule: Q01DX001 (ip), vehicle: saline) 63 % of control; (endpoint: median tumor weight change, dose: 6.25 mg/kg/injection, schedule: Q01DX001 (ip), vehicle: saline) 94 % of control; (endpoint: median tumor weight change, dose: 12.5 mg/kg/injection, schedule: Q01DX001 (ip), vehicle: saline) 81 % of control; (endpoint: median tumor weight change, dose: 25.0 mg/kg/injection, schedule: Q01DX001 (ip), vehicle: saline) 78 % of control; (endpoint: median tumor weight change, dose: 25.0 mg/kg/injection, schedule: Q01DX001 (ip), vehicle: water) 47 % of control.
For `c1ccc(CN2CCOC2)cc1`, the T/C is, setting by setting: under setting [7], 51 % of control; under setting [10], 43 % of control; under setting [9], 62 % of control; under setting [11], 87 % of control.
